SMILES strings stand for the structures. Where a SMILES comes first, the peptide text is derived from it. The star is where a group is joined. Stearoyl = CCCCCCCCCCCCCCCCCC(=O)*

The experiment can be described thus: Binding affinity to NK1R (unknown origin) expressed in HEK293 cells assessed as reduction in cell viability incubated for 96 hrs by MTT assay.

On to `CCCCCCCCCCCCCCCCCC(=O)N[C@@H](CCCCN)C(=O)N[C@@H](Cc1c[nH]c2ccccc12)C(=O)N[C@@H](CCCCN)C(=O)N[C@@H](CC(C)C)C(=O)N[C@@H](CCC(=O)O)C(=O)N[C@@H](CCCCN)C(=O)N[C@@H](CCCCN)C(=O)N[C@H](C(=O)NCC(=O)N[C@@H](C)C(=O)N[C@H](C(=O)N[C@@H](CC(C)C)C(=O)N[C@H](C(=O)N[C@@H](CS)C(=O)N[C@H](C(=O)N[C@@H](CC(C)C)C(=O)N[C@@H](CCCNC(=N)N)C(=O)N1CCC[C@H]1C(=O)N[C@@H](CCCCN)C(=O)N1CCC[C@H]1C(=O)N[C@@H](CCC(N)=O)C(=O)N[C@@H](CCC(N)=O)C(=O)N[C@@H](Cc1ccccc1)C(=O)N[C@@H](Cc1ccccc1)C(=O)NCC(=O)N[C@@H](CC(C)C)C(=O)N[C@@H](CCSC)C(N)=O)C(C)C)[C@@H](C)CC)C(C)C)[C@@H](C)CC` (Stearoyl-KWKLEKKIGAVLICVLRPKPQQFFGLM-NH2), for which the EC50 worked out at 5.3 µM.
